Assay results taken from patent US20240270762A1, “PENICILLIN-BINDING PROTEIN INHIBITORS” (priority 2021, published 2024).
pIC50: −log10 of the molar value. ≈ marks a conversion by molar mass, not a printed value.

Experiments:
[1] = tested on: N. gonorrhoeae WHO M; test: Liquid broth MIC in Fastidious broth; conditions: Neisseria gonorrhoeae, read-out: Minimum Inhibitory Concentration (MIC), N. gonorrhoeae WHO M
[2] = molecular target: T1, PBP3 from Acinetobacter baumannii (ATCC 19606) (Acinetobacter baumannii, UniProt A0ABX6CK25); test: Bocillin-FL fluorescence polarization competition binding, A. baumannii PBP3; conditions: fluorescence polarization competition binding assay using Bocillin-FL; read-out: A. baumannii PBP3 Potency
T1 sequence (A0ABX6CK25 64-610): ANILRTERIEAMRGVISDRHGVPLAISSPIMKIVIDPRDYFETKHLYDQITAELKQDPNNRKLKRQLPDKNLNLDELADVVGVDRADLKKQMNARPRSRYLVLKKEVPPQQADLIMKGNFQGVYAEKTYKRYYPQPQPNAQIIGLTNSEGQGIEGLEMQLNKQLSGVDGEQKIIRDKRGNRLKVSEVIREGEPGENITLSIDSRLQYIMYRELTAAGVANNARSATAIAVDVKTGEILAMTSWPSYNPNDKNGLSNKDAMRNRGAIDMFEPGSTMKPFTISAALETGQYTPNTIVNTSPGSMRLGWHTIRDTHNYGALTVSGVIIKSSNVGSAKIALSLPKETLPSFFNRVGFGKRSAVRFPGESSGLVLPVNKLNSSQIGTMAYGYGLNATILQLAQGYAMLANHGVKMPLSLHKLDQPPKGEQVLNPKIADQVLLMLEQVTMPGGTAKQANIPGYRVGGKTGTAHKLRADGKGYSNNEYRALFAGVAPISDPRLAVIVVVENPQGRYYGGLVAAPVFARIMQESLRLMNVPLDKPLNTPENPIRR
Outline: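 Purified PBPs pre-incubated with inhibitor (E. coli PBP3 1.5 μM, 30 min; P. aeruginosa PBP3 0.75 μM, A. baumannii PBP1a 1 μM and PBP3 0.2 μM, 15 min), then Bocillin-FL 0.1 μM (0.05 μM for PBP1a) added; FP read up to 60 min. EC50 = concentration halving bound Bocillin-FL.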

[3] = tested on: A. baumannii ATCC 17978; test: microbe, parasite or virus in culture; type: cell-based; conditions: Acinetobacter baumannii, ATCC17978, read-out: MIC, A. baumannii ATCC 17978
[4] = tested on: A. baumannii ATCC 19606; test: microbe, parasite or virus in culture; type: cell-based; conditions: Acinetobacter baumannii, ATCC19606, read-out: MIC, A. baumannii ATCC 19606
[5] = tested on: P. aeruginosa ATCC 35151; test: microbe, parasite or virus in culture; type: cell-based; conditions: Pseudomonas aeruginosa, ATCC35151, read-out: Minimum inhibitory concentration, P. aeruginosa ATCC 35151
[6] = tested on: B. humptydooensis ATCC BAA-2767; test: microbe, parasite or virus in culture; type: cell-based; conditions: Burkholderia humptydooensis, ATCCBAA2767, read-out: Minimum inhibitory concentration (MIC), B. humptydooensis ATCC BAA-2767

| SMILES | MIC [1] | pIC50 [2] | MIC [3] | MIC [4] | MIC [5] | MIC [6] |
| --- | --- | --- | --- | --- | --- | --- |
| CS(=O)(=O)N1CCN(C(=O)N[C@H](C(=O)N[C@H]2Cc3cccc(C(=O)O)c3OB2O)c2ccc(P(=O)(O)O)cc2)C1=O (single isomer, unassigned) [Example 5] | < 1 µg/mL | – | – | – | – | – |
| CCN1CCN(C(=O)NC(C(=O)N[C@H]2Cc3cccc(C(=O)O)c3OB2O)c2ccc(P(=O)(O)O)cc2F)C(=O)C1=O (stereo partly drawn) [Example 1, (3R)-3-(2-(4-ethyl-2,3-dioxopiperazine-1-carboxamido)-2-(2-fluoro-4-phosphonophenyl)acetamido)-2-hydroxy-3,4-dihydro-2H-benzo[e][1,2]oxaborinine-8-carboxylic acid] | < 1 µg/mL | – | – | – | – | – |
| CCN1CCN(C(=O)NC(C(=O)N[C@H]2Cc3cccc(C(=O)O)c3OB2O)c2cc(P(=O)(O)O)ccc2F)C(=O)C1=O (stereo partly drawn) [Example 2, (3R)-3-(2-(4-ethyl-2,3-dioxopiperazine-1-carboxamido)-2-(2-fluoro-5-phosphonophenyl)acetamido)-2-hydroxy-3,4-dihydro-2H-benzo[e][1,2]oxaborinine-8-carboxylic acid] | 4 to 8 µg/mL (≈ 6.6 to 13.2 µM) | – | – | – | – | – |
| NCCN1CCN(C(=O)NC(C(=O)N[C@H]2Cc3cccc(C(=O)O)c3OB2O)c2ccc(P(=O)(O)O)cc2)C(=O)C1=O (stereo partly drawn) [Example 3, (3R)-3-(2-(4-(2-aminoethyl)-2,3-dioxopiperazine-1-carboxamido)-2-(4-phosphonophenyl)acetamido)-2-hydroxy-3,4-dihydro-2H-benzo[e][1,2]oxaborinine-8-carboxylic acid] | < 1 µg/mL | – | – | – | – | – |
| O=C(O)c1c(F)ccc2c1OB(O)[C@@H](NC(=O)C(NC(=O)N1CCN(C3CCN(C(=O)c4ccc(O)cc4)CC3)C(=O)C1=O)c1cc(F)c(O)c(O)c1Cl)C2 (stereo partly drawn) [Example 427, (3R)-3-(2-(2-chloro-5-fluoro-3,4-dihydroxyphenyl)-2-(4-(1-(4-hydroxybenzoyl)piperidin-4-yl)-2,3-dioxopiperazine-1-carboxamido)acetamido)-7-fluoro-2-hydroxy-3,4-dihydro-2H-benzo[e][1,2]oxaborinine-8-carboxylic acid] | – | > 5.00 | < 1 µg/mL | < 1 µg/mL | < 1 µg/mL | < 1 µg/mL |
| O=C(O)c1c(F)ccc2c1OB(O)[C@@H](NC(=O)C(NC(=O)N1CCN(C3CCN(S(=O)(=O)c4cccc(O)c4)CC3)C(=O)C1=O)c1cc(F)c(O)c(O)c1Cl)C2 (stereo partly drawn) [Example 428, (3R)-3-(2-(2-chloro-5-fluoro-3,4-dihydroxyphenyl)-2-(4-(1-((3-hydroxyphenyl)sulfonyl)piperidin-4-yl)-2,3-dioxopiperazine-1-carboxamido)acetamido)-7-fluoro-2-hydroxy-3,4-dihydro-2H-benzo[e][1,2]oxaborinine-8-carboxylic acid] | – | > 5.00 | < 1 µg/mL | < 1 µg/mL | < 1 µg/mL | > 128 µg/mL |
| O=C(O)c1c(F)ccc2c1OB(O)[C@@H](NC(=O)C(NC(=O)N1CCN(C3CCN(S(=O)(=O)c4ccc(O)cc4)CC3)C(=O)C1=O)c1cc(F)c(O)c(O)c1Cl)C2 (stereo partly drawn) [Example 429, (3R)-3-(2-(2-chloro-5-fluoro-3,4-dihydroxyphenyl)-2-(4-(1-((4-hydroxyphenyl)sulfonyl)piperidin-4-yl)-2,3-dioxopiperazine-1-carboxamido)acetamido)-7-fluoro-2-hydroxy-3,4-dihydro-2H-benzo[e][1,2]oxaborinine-8-carboxylic acid] | – | > 5.00 | < 1 µg/mL | < 1 µg/mL | < 1 µg/mL | > 128 µg/mL |
| O=C(NCCCN1CCN(C(=O)NC(C(=O)N[C@H]2Cc3ccc(F)c(C(=O)O)c3OB2O)c2cc(F)c(O)c(O)c2Cl)C(=O)C1=O)c1ccnc(F)c1 (stereo partly drawn) [Example 466, (3R)-3-(2-(2-chloro-5-fluoro-3,4-dihydroxyphenyl)-2-(4-(3-(2-fluoroisonicotinamido)propyl)-2,3-dioxopiperazine-1-carboxamido)acetamido)-7-fluoro-2-hydroxy-3,4-dihydro-2H-benzo[e][1,2]oxaborinine-8-carboxylic acid] | – | > 5.00 | < 1 µg/mL | < 1 µg/mL | < 1 µg/mL | 8 to 16 µg/mL (≈ 10.5 to 21 µM) |
| O=C(O)c1c(F)ccc2c1OB(O)[C@@H](NC(=O)C(NC(=O)N1CCN(C3CCN(C(=O)Cc4cccc(O)c4)CC3)C(=O)C1=O)c1cc(F)c(O)c(O)c1Cl)C2 (stereo partly drawn) [Example 474, (3R)-3-(2-(2-chloro-5-fluoro-3,4-dihydroxyphenyl)-2-(4-(1-(2-(3-hydroxyphenyl)acetyl)piperidin-4-yl)-2,3-dioxopiperazine-1-carboxamido)acetamido)-7-fluoro-2-hydroxy-3,4-dihydro-2H-benzo[e][1,2]oxaborinine-8-carboxylic acid] | – | > 5.00 | < 1 µg/mL | < 1 µg/mL | < 1 µg/mL | < 1 µg/mL |
| O=C(O)c1c(F)ccc2c1OB(O)[C@@H](NC(=O)C(NC(=O)N1CCN(CC3CCN(C(=O)c4cccc(O)c4)CC3)C(=O)C1=O)c1cc(F)c(O)c(O)c1Cl)C2 (stereo partly drawn) [Example 475, (3R)-3-(2-(2-chloro-5-fluoro-3,4-dihydroxyphenyl)-2-(4-((1-(3-hydroxybenzoyl)piperidin-4-yl)methyl)-2,3-dioxopiperazine-1-carboxamido)acetamido)-7-fluoro-2-hydroxy-3,4-dihydro-2H-benzo[e][1,2]oxaborinine-8-carboxylic acid] | – | > 5.00 | < 1 µg/mL | < 1 µg/mL | < 1 µg/mL | 2 to 4 µg/mL (≈ 2.5 to 5 µM) |
| O=C(O)c1c(F)ccc2c1OB(O)[C@@H](NC(=O)C(NC(=O)N1CCN(C3CCN(C(=O)c4ccc(O)cc4O)CC3)C(=O)C1=O)c1cc(F)c(O)c(O)c1Cl)C2 (stereo partly drawn) [Example 476, (3R)-3-(2-(2-chloro-5-fluoro-3,4-dihydroxyphenyl)-2-(4-(1-(2,4-dihydroxybenzoyl)piperidin-4-yl)-2,3-dioxopiperazine-1-carboxamido)acetamido)-7-fluoro-2-hydroxy-3,4-dihydro-2H-benzo[e][1,2]oxaborinine-8-carboxylic acid] | – | > 5.00 | < 1 µg/mL | < 1 µg/mL | < 1 µg/mL | < 1 µg/mL |
| O=C(O)c1c(F)ccc2c1OB(O)[C@@H](NC(=O)C(NC(=O)N1CCN(CC3CCN(C(=O)Nc4cccc(O)c4)CC3)C(=O)C1=O)c1cc(F)c(O)c(O)c1Cl)C2 (stereo partly drawn) [Example 477, (3R)-3-(2-(2-chloro-5-fluoro-3,4-dihydroxyphenyl)-2-(4-((1-((3-hydroxyphenyl)carbamoyl)piperidin-4-yl)methyl)-2,3-dioxopiperazine-1-carboxamido)acetamido)-7-fluoro-2-hydroxy-3,4-dihydro-2H-benzo[e][1,2]oxaborinine-8-carboxylic acid] | – | > 5.00 | < 1 µg/mL | < 1 µg/mL | < 1 µg/mL | < 1 µg/mL |
| O=C(O)c1c(F)ccc2c1OB(O)[C@@H](NC(=O)C(NC(=O)N1CCN(C3CCN(C(=O)Nc4cccc(O)c4F)CC3)C(=O)C1=O)c1cc(F)c(O)c(O)c1Cl)C2 (stereo partly drawn) [Example 478, (3R)-3-(2-(2-chloro-5-fluoro-3,4-dihydroxyphenyl)-2-(4-(1-((2-fluoro-3-hydroxyphenyl)carbamoyl)piperidin-4-yl)-2,3-dioxopiperazine-1-carboxamido)acetamido)-7-fluoro-2-hydroxy-3,4-dihydro-2H-benzo[e][1,2]oxaborinine-8-carboxylic acid] | – | > 5.00 | < 1 µg/mL | < 1 µg/mL | < 1 µg/mL | 8 to 16 µg/mL (≈ 9.77 to 19.5 µM) |
